Assay results as given in US20040224981A1, “Antibacterial methods and compositions” (priority 2003, published 2004).
Like-named read-outs stand apart in the source and are kept apart here.

What was measured:
S. pyogenes = experiment: MIC against S. pyogenes; format: cell-based, Streptococcus pyogenes
Method: (§1) The MRS inhibitor 4 alone and in combination with mupirocin (mupirocin salt and 1:1 combination) were tested against a collection of Gram-positive pathogens.
S. pyogenes is also a significant skin pathogen and 48 recent clinical isolates were tested for their susceptibility to MRSi compound 5 alone (acetate) and in combination (1:1) with mupirocin (mupirocinate).

E. faecalis = experiment: MIC against E. faecalis; format: cell-based; settings: for MIC: Enterococcus faecalis, read-out: MIC
S. hemolyticus = experiment: MIC against S. hemolyticus; format: cell-based
Method: as §1
The MRS inhibitor 8 was also prepared as a fusidate and mupirocinate salt and tested for antibacterial activity against Gram-positive bacteria (Table 3). […] MRSi compound 8 alone and the fusidate and mupirocin salts were active against mupirocin-resistant S. aureus and S. epidermidis and organisms such as E. faecalis that are not susceptible to mupirocin.
The MRS inhibitor 5 acetate and mupirocin salts were tested against a collection of Gram-positive bacteria.

E. faecium = experiment: MIC against E. faecium; format: cell-based
Method: MRSi compound 5 alone and in combination with mupirocin was tested recent clinical isolates of E. faecalis (n=28) and E. faecium (n=23). Both the acetate salt and mupirocinate salts of MRSi compound 5 maintained potent activity against vancomycin-susceptible and—resistant enterococci (Tables 8, 9, and 10).

S. aureus = experiment: MIC against S. aureus strains and clinical isolates (broth microdilution); format: cell-based, Staphylococcus aureus; settings: Staphylococcus aureus, read-out: MIC
How it was run: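 Broth microdilution per NCCLS in cation-supplemented Mueller-Hinton broth, final inoculum 5×10^5 CFU/ml from 0.5 McFarland suspensions diluted 1:10. Trays incubated aerobically overnight with quality control strains each run. Checkerboard FIC index: ≦0.5 synergy, >0.5 to 4 additive/indifferent, >4.0 antagonism.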

[1] = 48 recent clinical isolates of S. pyogenes
[2] = recent clinical isolates of E. faecalis, ALL (28)
[3] = recent clinical isolates of E. faecium, ALL (23)

C/C(=C\C(=O)OCCCCCCCCC(=O)O)C[C@@H]1OC[C@H](C[C@@H]2O[C@H]2[C@@H](C)[C@H](C)O)[C@@H](O)[C@H]1O [Mupirocin, Pseudomonic acid A]
MIC50 (S. pyogenes; [1]): 0.12 µg/mL
MIC90 (S. pyogenes; [1]): 0.25 µg/mL
Mode (MIC) (S. pyogenes; [1]): 0.12 µg/mL
MIC Range (S. pyogenes; 48 recent clinical isolates of S. pyogenes, in µg/mL): 0.03-0.5
MIC (S. pyogenes; Streptococcus pyogenes, ATCC19615, Table 2, S. pyogenes ATCC 19615, read-out: MIC): 0.12 µg/mL
MIC (S. pyogenes; Streptococcus pyogenes, Table 2, S. pyogenes MB143 (macrolide rest.), read-out: MIC): 0.12 µg/mL
MIC (S. pyogenes; Table 3, S. pyogenes ATCC 19615): 0.12 µg/mL
MIC (S. pyogenes; Table 3, S. pyogenes MB143 (macrolide rest.)): 0.12 µg/mL
MIC (S. pyogenes; Table 4, S. pyogenes ATCC 19615): 0.12 µg/mL
MIC (S. pyogenes; Table 4, S. pyogenes MB000143): 0.12 µg/mL
MIC50 (E. faecalis; E. faecalis, Van-R(11)): > 8 µg/mL
MIC90 (E. faecalis; E. faecalis, Van-R(11)): > 8 µg/mL
Mode (MIC) (E. faecalis; E. faecalis, Van-R(11)): > 8 µg/mL
MIC50 (E. faecalis; E. faecalis, Van-S (16)): > 8 µg/mL
MIC90 (E. faecalis; E. faecalis, Van-S (16)): > 8 µg/mL
Mode (MIC) (E. faecalis; E. faecalis, Van-S (16)): > 8 µg/mL
MIC (E. faecalis; ATCC29212, Table 2, E. faecalis ATCC 29212): 8 µg/mL
MIC (E. faecalis; ATCC29212, Table 3, E. faecalis ATCC 29212): 8 µg/mL
MIC (E. faecalis; ATCC29212, Table 4, E. faecalis ATCC 29212): > 8 µg/mL
MIC (E. faecalis; ATCC 51299 / VRE, Table 8, E. faecalis ATCC 51299 (VRE)): 32 µg/mL
MIC (E. faecalis; Table 2, E. faecalis 1): 8 µg/mL
MIC (E. faecalis; Table 2, E. faecalis 7): 8 µg/mL
MIC (E. faecalis; Table 3, E. faecalis 1): 8 µg/mL
MIC (E. faecalis; Table 3, E. faecalis 7): 8 µg/mL
MIC (E. faecalis; Table 4, E. faecalis 1): > 8 µg/mL
MIC (E. faecalis; Table 4, E. faecalis 7): > 8 µg/mL
MIC (E. faecalis; Table 8, E. faecalis 1): 32 µg/mL
MIC (E. faecalis; Table 8, E. faecalis 7): 64 µg/mL
MIC50 (E. faecalis; [2]): > 8 µg/mL
MIC90 (E. faecalis; [2]): > 8 µg/mL
Mode (MIC) (E. faecalis; [2]): > 8 µg/mL
MIC (S. hemolyticus; Table 2, S. hemolyticus NRS50, read-out: MIC): 0.12 µg/mL
MIC (S. hemolyticus; Table 2, S. hemolyticus NRS116, read-out: MIC): 0.25 µg/mL
MIC (S. hemolyticus; Table 3, S. hemolyticus NRS50): 0.12 µg/mL
MIC (S. hemolyticus; Table 3, S. hemolyticus NRS116): 0.25 µg/mL
MIC (S. hemolyticus; Table 4, S. hemolyticus NRS50): 0.12 µg/mL
MIC (S. hemolyticus; Table 4, S. hemolyticus NRS116): 0.25 µg/mL
MIC50 (E. faecium; E. faecium, Van-R(12)): 1 µg/mL
MIC90 (E. faecium; E. faecium, Van-R(12)): > 8 µg/mL
Mode (MIC) (E. faecium; E. faecium, Van-R(12)): 1 µg/mL
MIC50 (E. faecium; E. faecium, Van-S (11)): 1 µg/mL
MIC90 (E. faecium; E. faecium, Van-S (11)): 1 µg/mL
Mode (MIC) (E. faecium; E. faecium, Van-S (11)): 1 µg/mL
Range (MIC) (E. faecium; E. faecium, Van-S (11), in µg/mL): 0.25-1
MIC (E. faecium; Enterococcus faecium, ATCC33667, Table 8, E. faecium ATCC 33667, read-out: MIC): 1 µg/mL
MIC50 (E. faecium; [3]): 1 µg/mL
MIC90 (E. faecium; [3]): > 8 µg/mL
Mode (MIC) (E. faecium; [3]): 1 µg/mL
MIC (S. aureus; ATCC29213, Table 2, S. aureus ATCC 29213): 0.12 µg/mL
MIC (S. aureus; ATCC29213, Table 3, S. aureus ATCC 29213): 0.12 µg/mL
MIC (S. aureus; ATCC29213, Table 4, S. aureus ATCC 29213): 0.12 µg/mL
MIC (S. aureus; ATCC43300, S. aureus ATCC 43300 (ORSA)): 0.12 µg/mL
MIC (S. aureus; ATCC43300, Table 2, S. aureus ATCC 43300 (ORSA)): 0.25 µg/mL
MIC (S. aureus; ATCC43300, Table 3, S. aureus ATCC 43300 (ORSA)): 0.25 µg/mL
MIC (S. aureus; NRS 1 / VISA, S. aureus NRS1 (VISA)): 0.12 µg/mL
MIC (S. aureus; NRS 1 / VISA, VISA, S. aureus NRS1 (Mu50)): 0.06 µg/mL
MIC (S. aureus; NRS 3 / VISA, VISA, S. aureus NRS3 (HIP5827)): 0.5 µg/mL
MIC (S. aureus; NRS 4 / VISA, VISA, S. aureus NRS4 (HIP5836)): 0.12 µg/mL
MIC (S. aureus; NRS 18 / VISA, VISA, S. aureus NRS18 (HIP06854)): 8 µg/mL
